Here are results for nine molecules from PMC5738580, “Design, Synthesis, and Cytotoxicity Evaluation of Novel Griseofulvin Analogues with Improved Water Solubility” (International Journal of Medicinal Chemistry, 2017).

Series [1] concerns HCT116 cells. Nature of the series: SRB cytotoxicity assay, HCT116. The class given is cell-based, human. The conditions noted are these: for IC50: Homo sapiens, HCT-116, read-out: IC50 against HCT116. The procedure:
(§1) Breast carcinoma MCF-7 and colorectal cancer HCT116 cell lines were used in this study. Cancer cell lines were obtained frozen in liquid nitrogen (−180°C) from the American Type Culture Collection (ATCC). The tumor cell line was maintained by serial subculturing in RPMI 1640 media containing 10% […] at the National Cancer Institute, Cairo, Egypt.
(§2) Cytotoxicity assay was carried out according to the reported literature, where the sensitivity of the MCF-7 and HCT116 cell lines to the tested compounds and their combination was determined by the SRB assay. In brief, cells were seeded at a density of 3 × 10^3 cells/well in 96-well microtiter plates. Cells were left to attach for 24 hours before incubation with drugs. Next, they were treated with different concentrations of the tested compounds (10, 20, 30, 40, 50, and 100 μM).
(§3) Control cells containing 200 μl/well of DMSO (0.1% v/v) were used similarly. At the end of incubation, cells were fixed with 20% trichloroacetic acid (TCA), stained with 0.4% Sulforhodamine B (SRB), and rinsed with 1% acetic acid. The bound protein stain was solubilized with Tris base (10 mM, pH 10.5) and the optical density (OD) of each well was measured spectrophotometrically at 570 nm using ELISA microplate reader (TECAN, Sunrise^TM, Germany). The fraction of cell survival was calculated as follows.
(§4) Survival fraction = OD treated/OD control. […] Each experiment was repeated 3 times.
Background: The SRB assay estimates cell density from bound dye.

The subject of series [2] is MCF-7 cells. Nature of the series: SRB cytotoxicity assay, MCF-7. The format is cell-based. To be noted: Homo sapiens, MCF7, read-out: IC50 against MCF-7. The procedure: as §1, §2, §3, §4
Series [3] can be described thus: Equilibrium solubility in buffer solutions (UV). To be noted: thermodynamic from solid, 37 °C, read-out: Mean solubility ± SD. The class given is physicochemical. The procedure: UV measurements were performed on single beam spectrophotometer (Jenway, model 6305, UK). Equilibrium solubility was performed through using digital precise shaking water bath (DAIHAN Scientific Co., model WSB-45, Republic of Korea).
A powdered sample (20 mg), of each of the tested compounds [3, 5–10, and griseofulvin 1], was accurately weighed and dissolved in 100 ml of methanol to prepare 200 μg/ml stock solution. Compound solutions (20 μg/ml) in the investigated media (buffer solutions of pH 1.2 and 6.8) were prepared from stock solution after appropriate dilution. The prepared solutions were scanned in the UV-Vis region (200–800 nm) to determine the wavelength of maximum absorption (λmax) in each medium.
Solutions containing different concentrations of the investigated compound were prepared from stock solution after appropriate dilution with the investigated buffer solutions. The UV absorbance of the prepared sample solutions was measured at λmax of the investigated compound using the investigated buffer solution as a reference solution (blank). The determined absorbance values were plotted versus the corresponding concentrations to construct the standard calibration curves.
Equilibrium solubility of each of the tested compounds was determined by placing an excess amount of the compound in stoppered glass volumetric flask containing 10 ml of the investigated buffer solution. The solutions were shaken at a rate of (40 ± 2) stroke/minute in a thermostatically controlled water bath at 37 ± 0.5°C for 24 hours to ensure equilibrium. Samples of 2 ml were withdrawn from each test solution, filtered immediately, and assayed spectrophotometrically at the determined λmax of the investigated compound.

Series [4] deals with MCF-7 cells. Nature of the series: Combination of compound 9 with tamoxifen (SRB, combination index). The format is cell-based, human. The method, then:
(§5) Estrogen-dependent breast cancer represents 70% of all types of breast cancer. […] Combination therapy is used in order to prevent resistance or recurrence. […] Similar study was performed for evaluation of combination effect of compound 9 with 5-fluorouracil on HCT116 cells proliferation (Figure 1).
as §2
(§6) CI was employed to determine whether the compounds interacted synergistically, additively, or antagonistically. […] If “CI” is less than 1, the effect of combination is synergistic, whereas if CI = 1 or >1, the effect is additive or antagonistic, respectively.

Series [5] concerns HCT116 cells. Nature of the series: Combination of compound 9 with 5-fluorouracil (SRB, combination index). The class given is cell-based, human. The procedure:
as §5, §2, §6

For series [6], the system named is MCF-7 cells. Nature of the series: Apoptosis, Annexin V-FITC/PI flow cytometry. To be noted: MCF-7, 21.5 μM, 48 hrs. The class given is cell-based, human. The method, then:
In order to study the effect of compound 9 on apoptosis, MCF-7 cells were treated with compound 9 (21.5 μM) for 48 hrs and harvested for fluorescence microscopic and flow cytometric analysis of Annexin V-FITC/propidium iodide (PI) staining. […] The percentage of apoptotic cells was 2.65% in control untreated MCF-7 cells and 31.75% after treatment with compound 9.
In brief, untreated and treated MCF-7 cells (21.5 μM of 9) were harvested and resuspended in calcium buffer at a concentration of 1 × 10^6 cells/ml. Annexin V-FITC (10 μl) was added to 100 μl of cells. The tubes were incubated for 20 min in the dark. The cells were then washed with calcium buffer and propidium iodide (10 μl) was added to each tube and incubated for at least 10 min on ice. Samples were analyzed by FACScan flow cytometer (Becton-Dickinson, San Jose, CA, USA) using CellQuest software (Becton-Dickinson, San Jose, CA).
A general note: Flow cytometry measures light scatter and fluorescence of single cells or particles in a stream.

For series [7], the system named is centrosomal clustering. Also on record: method as in PMID 22191585, PMID 19402668. To be noted: cited from earlier work.
Where [8] appears, read: buffer solution pH 1.2, simulated gastric fluid, pH 1.2 buffer solution.
The mark [9] stands for this setting: buffer solution pH 6.8, aqueous buffer, pH 6.8 buffer solution.

In brackets after ≈: the same amount, converted by molar mass. Like-named read-outs stand apart in the source and are kept apart here.

As for `COC1=CC(=NNC(=O)c2ccncc2)C[C@@H](C)[C@]12Oc1c(Cl)c(OC)cc(OC)c1C2=O` (mixture of isomers) [Compound 8, (E/Z)-N′-((2S,6′R)-7-Chloro-2′,4,6-trimethoxy-6′-methyl-3-oxo-3H-spiro[benzofuran-2,1′-cyclohex[2′]en]-4′-ylidene)isonicotinic Acid Hydrazide], the IC50 (usually the concentration needed to halve the response being measured) in series [1] was determined as 39.8 µM; in series [2], 25.3 µM. Further, the solubility (in general, the dissolved amount per volume that the medium holds) at 24 h was 29.1 ± 0.72 µg/mL in series [3] (setting [8]) and 12.5 ± 0.54 µg/mL in series [3] (setting [9]).

On to `COc1cc(OC)c2c(c1Cl)OC1(C2=O)C(OCc2ccccc2)=CC(=NNC(=N)N)CC1C` [Compound 10, 2-((2S,6′R)-2′-Benzyloxy-7-chloro-4,6-dimethoxy-6′-methyl-3-oxo-3H-spiro[benzofuran-2,1′-cyclohex[2′]en]-4′-ylidene)hydrazine-1-carboximidamide], for which the “increase in activity over 5-fluorouracil against HCT116” value in series [1] amounted to 2 fold. Also, the IC50 worked out at 8.39 µM in series [1] and 14.5 µM in series [2]. The solubility at 24 h was 26.7 ± 0.57 µg/mL (≈ 55 µM) in series [3] (setting [8]) and 16.6 ± 0.58 µg/mL (≈ 34.2 µM) in series [3] (setting [9]).

For the molecule `COC1=CC(=NNC(N)=O)C[C@@H](C)[C@]12Oc1c(Cl)c(OC)cc(OC)c1C2=O` (mixture of isomers) [Compound 6, (E/Z)-2-((2S,6′R)-7-Chloro-2′,4,6-trimethoxy-6′-methyl-3-oxo-3H-spiro[benzofuran-2,1′-cyclohex[2′]en]-4′-ylidene)hydrazine-1-carboxamide], the concentration for half-maximal inhibition (IC50) stood at 87.8 µM in series [1] and 55.9 µM in series [2]. Also, the solubility at 24 h is 14.86 ± 0.12 µg/mL in series [3] (setting [8]) and 14.5 ± 0.39 µg/mL in series [3] (setting [9]).

For the molecule `O=c1[nH]cc(F)c(=O)[nH]1` [5-Fluorouracil, reference compound], the IC50 in series [1] was 19.5 µM.

Regarding `COc1cc(OC)c2c(c1Cl)OC1(C2=O)C(OCc2ccccc2)=CC(=NNC(N)=O)CC1C` [Compound 9, 2-((2S,6′R)-2′-Benzyloxy-7-chloro-4,6-dimethoxy-6′-methyl-3-oxo-3H-spiro[benzofuran-2,1′-cyclohex[2′]en]-4′-ylidene)hydrazine-1-carboxamide], the “increase in activity over 5-fluorouracil against HCT116” value in series [1] was 2 fold. Besides, the IC50 in series [1] stood at 10.5 µM; in series [2] it was 21.5 µM. In addition, the “combination index (CI)” value in series [4] (half of IC50 of compound 9 + quarter of IC50 of tamoxifen) came to 0.25 ± 0.03; in series [4] (quarter of IC50 of compound 9 + half of IC50 of tamoxifen) it was 0.17 ± 0.06; in series [5] (half of IC50 of compound 9 + quarter of IC50 of 5-fluorouracil), 0.37 ± 0.07; in series [5] (quarter of IC50 of compound 9 + half of IC50 of 5-fluorouracil) it was 0.2 ± 0.06. For the same molecule, the “percentage of apoptotic cells” value in series [6] came out at 31.75%. Further, the solubility at 24 h in series [3] (setting [8]) is 14 ± 0.31 µg/mL (≈ 28.7 µM); in series [3] (setting [9]), 13.78 ± 0.07 µg/mL (≈ 28.4 µM).

As for `COc1cc(OC)c2c(c1Cl)O[C@]1(C2=O)C(OCc2ccccc2)=CC(=NOCC(=O)O)C[C@H]1C` (mixture of isomers) [Compound 5, 2-(((E/Z)-[(2S,6′R)2′-Benzyloxy-7-chloro-4,6-dimethoxy-6′-methyl-3-oxo-3H-spiro[benzofuran-2,1′-cyclohex[2′]en]-4′-ylidene]amino)oxy) Acetic Acid], the IC50 in series [1] is more than 100 µM; in series [2], 20.7 µM. Moreover, the solubility at 24 h in series [3] (setting [8]) is 14.3 ± 0.42 µg/mL; in series [3] (setting [9]), 27.94 ± 0.27 µg/mL.

Consider `COc1cc(OC)c2c(c1Cl)O[C@]1(C2=O)C(OCc2ccccc2)=CC(=O)C[C@H]1C` [Compound 3, (2S,6′R)-2′-Benzyloxy-7-chloro-4,6-dimethoxy-6′-methyl-3H-spiro[benzofuran-2,1′-cyclohex[2′]en]-3,4′-dione, reference compound], for which the results for the IC50 in series [1] and in series [2] were 35.8 µM and 32.8 µM, respectively. Moreover, the solubility at 24 h is 11.1 ± 0.37 µg/mL (≈ 26 µM) in series [3] (setting [8]) and 11.1 ± 0.82 µg/mL (≈ 25.9 µM) in series [3] (setting [9]). Moreover, the “increase in activity as a centrosome clustering inhibitor compared to 1” value in series [7] is 25 fold.

For `COC1=CC(=NNC(=N)N)C[C@@H](C)[C@]12Oc1c(Cl)c(OC)cc(OC)c1C2=O` [Compound 7, 2-((2S,6′R)-7-Chloro-2′,4,6-trimethoxy-6′-methyl-3-oxo-3H-spiro[benzo-furan-2,1′-cyclohex[2′]en]-4′-ylidene)hydrazine-1-carboximidamide], the 50% inhibitory concentration (IC50) in series [1] was found to be 85.6 µM; in series [2] it was 54.5 µM.

For `COC1=CC(=O)C[C@@H](C)[C@]12Oc1c(Cl)c(OC)cc(OC)c1C2=O` [Compound 1, Griseofulvin], the IC50 worked out at 35.5 µM in series [1] and 69 µM in series [2]. The solubility at 24 h is 12.3 ± 0.29 µg/mL (≈ 34.9 µM) in series [3] (setting [8]) and 12.4 ± 0.26 µg/mL (≈ 35.1 µM) in series [3] (setting [9]).
